In US7488738B2, “Aminophenoxyacetic acid derivatives and pharmaceutical composition containing thereof” (Asubio Pharma Co., Ltd., priority 1998, dated 2009):

What was measured:
calbindin D28Kd = test: Calbindin D28Kd inducing effect (western blot); assay type: cell-based, rats of Wister strain; settings: fetal rat cerebral cortex cells, none-treated control = 100
Procedure: Biological Test 2: Calbindin D28Kd Inducing Effect
In accordance with the method of M. P. Mattoson [M. P. Mattoson, Brain Res. Rev., 13, 179 (1988)], brain of 18-days fetus rats of Wister strain were taken out. Then, cells of cerebral cortex (5,500 cells/m^2) were seeded on poly-L-lysine coated 6 wells plate (Falcon) (3.5 mm, Sumilon) and incubated for 7 days.
Test compounds were added on culture day 5, and after 7 days of incubation, the protein was extracted with homogenized buffer-solution [containing 20 mM of Tris-HCl (pH=7.4), 1 mM of EDTA, and 0.1 mM of phenylmethylsulfonyl fluoride].
The effect of the test compounds was determined by the western blot technique using polyclonal anti calbindine D28K (Swant Co., Ltd.) as antibody.
In the table, the amount of induced calbindine D28Kd of the control group (none-treated group) was indicated as 100 percents.

[1] = tested on: rats of slc:Wister strain; test: Cerebral edema suppressing effect (brain injury by metal screw); assay type: in vivo; settings: rat, water content of injured hemisphere 6 days after operation
Procedure: Biological Test 3: Cerebral Edema Suppressing Effect 8-week-old rats of slc:Wister strain were used. Rats were anesthetized by intraperitoneal administration of 50 mg/kg of Nembutal (Trade Name), and then, fixed on brain fixactor. The sterile metal screw (3.75 mm in length/1.0 mm in diameter/0.75 mm in length of screw thread) was plugged in the 1.5 mm right and 0.8 mm rear side of the bregma to press frontparietal cortex organ to cause brain injury. 6 days after the operation, the whole brain was taken out and right cerebral hemisphere (injured side) was isolated. After measurement of the wet weight of the cerebral hemisphere, it was dried at 110° C. for 24 hours on aluminum foil. The dry weight of the cerebral hemisphere was measured, and the water content was calculated by using the following formula: Water content (%)=[(wet weight of hemisphere−dry weight of hemisphere)/wet weight of hemisphere]×100 The test compounds were intravenously administered just after the operation via tail vein of the rats.

cells of cerebral cortex = test: Cytoprotective effect against glutamate induced cell death (MTT); assay type: cell-based, rats of Wister strain; settings: compound 1 μM added 24 h before 1 mM glutamate, fetal rat cerebral cortex cells, control group = 100%; for viability at 1 µM: read-out: Survival Rate (%) (Compound: 1 μM)
Procedure: Biological Test 1: Cytoprotective Effect Against Glutamate Induced Cell Death
In accordance with the method of M. P. Mattoson [M. P. Mattoson, Brain Res. Rev., 13, 179 (1988)], brain of 18-days fetus rats of Wister strain were taken out. Then, cells of cerebral cortex (4×10^5 cells/ml) were seeded on poly-L-lysine coated 96 wells flat bottom plate (Sumitomo Bakelite Co., Ltd.) in concentration of 4×10^4 cells/each well. After 48 hours of incubation, 1 μM of test compounds were added, then after further 24 hours, 1 mM of glutamate were further added for inducing the cell injury. 12 hours after adding glutamate, MTT [3-(4,5-dimethylthiazol)-2,5-diphenyltetrazolium bromide] was added and incubated for 6 hours.
After incubation, 200 μl of dimethy sulfoxide was added to each wells, and the amounts of reduced MTT were calorimetrically analyzed by Micro ELISA Reader using 570 nm of main-wavelength and 650 nm of sub-wavelength.
The effect of the test compounds was determined as the survival rate of living cells (%) according to the following equation: Survival rate of living cells (%)=[(test compound group−glutamate treated group)÷(control group−glutamate treated group)]×100
That is, the survival rate of living cells after incubation of the control group was converted to 100%, and the survival data of living cells of the tested compounds was shown in Table II.

[2] = 3 mg/kg intravenously just after operation
[3] = 1 mg/kg intravenously just after operation

| SMILES | Amount of induced Calbindine D28Kd (% vs. control) (Compound: 1 μM) (calbindin D28Kd) | Cerebral edema suppressing rate (%) [1, 2] | Survival Rate (%) (Compound: 1 μM) (cells of cerebral cortex) | Cerebral edema suppressing rate (%) [1, 3] | viability at 1 µM (cells of cerebral cortex) |
| --- | --- | --- | --- | --- | --- |
| Cc1cc(OCC(=O)N(C)C2CCN(CC(=O)Nc3ccccc3)CC2)c(C)c(C)c1N [Compound 29, 2-(4-Amino-2,3,5-trimethylphenoxy)-N-[1-(2-anilino-2-oxyethyl)-4-piperidinyl]-N-methylacetamide] | 122 % vs. control | 30.9% | – | – | – |
| Cc1c(C)c(NCC(=O)N(C)C2CCN(CCc3ccccc3)CC2)c(C)c(C)c1N [Compound 40, 2-(4-Amino-2,3,5,6-tetramethylanilino)-N-methyl-N-[1-(2-phenethyl)-4-piperidinyl]acetamide] | 150 % vs. control | 20.5% | 108% | 31.1% | – |
| Cc1cc(OC(C)(C)C(=O)N(C)C2CCN(CC(=O)Nc3ccccc3)CC2)c(C)c(C)c1N [Compound 42, 2-(4-Amino-2,3,5-trimethylphenoxy)-2-methyl-N-[1-(2-anilino-2-oxyethyl)-4-piperidinyl]-N-methylpropamide] | – | 31.0% | 131% | 24.5% | – |
| Cc1cc(OCC(=O)NC2CCN(CC(=O)NC3(c4ccccc4)CC3)CC2)c(C)c(C)c1N [Compound 104, 2-(4-Amino-2,3,5-trimethylphenoxy)-N-[1-(2-(1-phenylcyclopropyl)amino-2-oxyethyl)-4-piperidinyl]acetamide] | – | 18.9% | 117% | – | – |
| Cc1cc(OCC(=O)N(C)C2CCN(CC(=O)N(C)c3ccccc3)CC2)c(C)c(C)c1N [Compound 105, 2-(4-Amino-2,3,5-trimethylphenoxy)-N-methyl-N-[1-(2-(N-methylanilino)-2-oxyethyl)-4-piperidinyl]acetamide] | – | 23.2% | 86% | – | – |
| Cc1cc(OCC(=O)NC2CCN(CC(=O)N(C)c3ccccc3)CC2)c(C)c(C)c1N [Compound 108] | – | 20.3% | – | – | – |
| Cc1c(C)c(NCC(=O)N(C)C2CCN(CC(C(=O)O)c3ccccc3)CC2)c(C)c(C)c1N (stereo not drawn) [Compound 109, 3{4-[[2-(4-Amino-2,3,5,6-tetramethylanilino)-acetyl](methyl)amino]-1-piperidino}-2-phenylpropionic acid] | – | 24.7% | 76% | – | – |
| Cc1c(C)c(NCC(=O)N(C)C2CCN(CC(=O)c3ccccc3)CC2)c(C)c(C)c1N [Compound 111, 2-(4-Amino-2,3,5,6-tetramethylanilino)-N-methyl-[1-(2-phenyl-2-oxyethyl)-4-piperidinyl]acetamide] | 167 % vs. control | 25.0% | 84% | – | – |
| Cc1c(C)c(NCC(=O)N(C)C2CCN(CC(O)c3ccccc3)CC2)c(C)c(C)c1N (stereo not drawn) [Compound 112, 2-(4-Amino-2,3,5,6-tetramethylanilino)-N-[1-(2-hydroxy-2-phenylethyl)-4-piperidinyl]-N-methylacetamide] | – | 20.7% | – | – | 76% |
| Cc1c(C)c(NCC(=O)N(C)C2CCN(CC3CC3)CC2)c(C)c(C)c1N [Compound 113] | – | 20.0% | 74% | – | – |
| Cc1c(C)c(NCC(=O)N(C)C2CCN(CCN3CCOCC3)CC2)c(C)c(C)c1N [Compound 119, 2-(4-Amino-2,3,5,6-tetramethylanilino)-N-methyl-N-{1-[2-(4-morpholinyl)ethyl]-4-piperidinyl}acetamide] | – | – | – | 21.6% | 115% |
| Cc1cc(C)c(NCC(=O)N(C)C2CCN(C(=O)c3ccccc3)CC2)c(C)c1N [Compound 128, 2-(3-Amino-2,4,6-trimethylanilino)-N-(1-benzoyl-4-piperidinyl)-N-methylacetamide] | 171 % vs. control | 20.3% | – | – | 81% |
| Cc1cc(C)c(NCC(=O)N(C)C2CCN(S(=O)(=O)c3ccccc3)CC2)c(C)c1N [Compound 130, 2-(3-Amino-2,4,6-trimethylanilino)-N-methyl-N-[1-(phenylsulfonyl)-4-piperidinyl]acetamide] | – | – | – | – | 60% |
| Cc1cc(C)c(NCC(=O)N(C)C2CCN(Cc3ccccc3)CC2)c(C)c1N [Compound 131, 2-(3-Amino-2,4,6-trimethylanilino)-N-(1-benzyl-4-piperidinyl)-N-methylacetamide] | – | – | – | – | 65% |
| CCCCN1CCC(N(C)C(=O)CNc2c(C)cc(C)c(N)c2C)CC1 [Compound 132, 2-(3-Amino-2,4,6-trimethylanilino)-N-(1-butyl-4-piperidinyl)-N-methylacetamide] | – | – | – | 30.4% | 60% |
| Cc1cc(C)c(NCC(=O)N(C)C2CCN(Cc3ccc4ccccc4c3)CC2)c(C)c1N [Compound 133, 2-(3-Amino-2,4,6-trimethylanilino)-N-methyl-N-[1-(2-naphthyl)methyl-4-piperidinyl]acetamide] | – | – | – | – | 101% |
| Cc1cc(C)c(NCC(=O)N(C)C2CCN(C(=O)c3cccc(C(F)(F)F)c3)CC2)c(C)c1N [Compound 134, 2-(3-Amino-2,4,6-trimethylanilino)-N-methyl-N-[1-(3-trifluoromethylbenzoyl)-4-piperidinyl]acetamide] | – | 35.0% | – | 27.9% | 79% |
| Cc1cc(C)c(N(C)C)c(C)c1NCC(=O)N(C)C1CCN(C(=O)c2ccccc2)CC1 [Compound 135, N-(1-benzoyl-4-piperidinyl)-2-(3-dimethylamino-2,4,6-trimethylanilino)-N-methylacetamide] | – | – | – | – | 76% |
| CN(C(=O)CNc1cc(Cl)c(N)cc1Cl)C1CCN(CCc2ccccc2)CC1 [Compound 138, 2-(4-Amino-2,5-dichloroanilino)-N-methyl-N-[1-(2-phenethyl)-4-piperidinyl]acetamide] | – | – | 42% | – | – |
| CN(C(=O)CNc1c(Cl)cc(N)cc1Cl)C1CCN(CC(=O)Nc2ccccc2)CC1 [Compound 139, 2-(4-Amino-2,6-dichloroanilino)-N-[1-(2-anilino-2-oxyethyl)-4-piperidinyl]-N-methylacetamide] | – | – | 53% | – | – |
